Values of other authors, collected in patent US9125929B2, “Trauma therapy” (Hibernation Therapeutics, A KF LLC, priority 2006, dated 2015).
One block for each molecule: values may come before it.

Legend:
NK(3) receptor = biological target: T1, NK(3) receptor (Homo sapiens, UniProt P29371); settings: NK(1) over NK(3)
T1 sequence (P29371 1-465): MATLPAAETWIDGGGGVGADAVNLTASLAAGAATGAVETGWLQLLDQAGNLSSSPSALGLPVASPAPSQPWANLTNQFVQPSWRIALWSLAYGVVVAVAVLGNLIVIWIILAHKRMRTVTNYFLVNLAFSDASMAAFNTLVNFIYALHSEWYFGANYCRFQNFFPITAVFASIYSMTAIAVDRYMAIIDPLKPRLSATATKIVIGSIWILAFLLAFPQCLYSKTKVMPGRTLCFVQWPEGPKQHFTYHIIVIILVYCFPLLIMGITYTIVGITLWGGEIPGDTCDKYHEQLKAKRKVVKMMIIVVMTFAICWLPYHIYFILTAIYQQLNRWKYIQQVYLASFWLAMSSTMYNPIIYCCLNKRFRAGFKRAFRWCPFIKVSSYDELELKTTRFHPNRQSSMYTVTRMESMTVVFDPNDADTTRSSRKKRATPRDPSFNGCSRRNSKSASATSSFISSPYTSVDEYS

NK(2) receptor = biological target: T2, NK(2) receptor (Homo sapiens, UniProt P21452); settings: NK(1) over NK(2)
T2 sequence (P21452 1-398): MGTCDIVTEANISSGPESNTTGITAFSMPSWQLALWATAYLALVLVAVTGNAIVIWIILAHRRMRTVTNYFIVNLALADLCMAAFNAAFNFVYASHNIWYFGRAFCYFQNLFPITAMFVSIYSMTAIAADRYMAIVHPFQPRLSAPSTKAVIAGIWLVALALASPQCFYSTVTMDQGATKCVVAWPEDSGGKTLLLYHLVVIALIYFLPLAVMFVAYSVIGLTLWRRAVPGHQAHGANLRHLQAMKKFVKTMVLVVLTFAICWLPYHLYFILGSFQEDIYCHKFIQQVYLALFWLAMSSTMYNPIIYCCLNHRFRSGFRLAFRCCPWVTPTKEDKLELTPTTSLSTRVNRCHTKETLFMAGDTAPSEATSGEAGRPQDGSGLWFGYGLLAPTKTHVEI

human NK(1) receptor = human NK(1) receptor (Homo sapiens, UniProt P25103); settings: read-out: K(i) for the human NK(1) receptor
[1] = orally and/or intravenous, 10, 25, 50 and 100 mg/kg body weight
[2] = 400 mg daily tablets

Chain of human NK(1) receptor (P25103 whole entry): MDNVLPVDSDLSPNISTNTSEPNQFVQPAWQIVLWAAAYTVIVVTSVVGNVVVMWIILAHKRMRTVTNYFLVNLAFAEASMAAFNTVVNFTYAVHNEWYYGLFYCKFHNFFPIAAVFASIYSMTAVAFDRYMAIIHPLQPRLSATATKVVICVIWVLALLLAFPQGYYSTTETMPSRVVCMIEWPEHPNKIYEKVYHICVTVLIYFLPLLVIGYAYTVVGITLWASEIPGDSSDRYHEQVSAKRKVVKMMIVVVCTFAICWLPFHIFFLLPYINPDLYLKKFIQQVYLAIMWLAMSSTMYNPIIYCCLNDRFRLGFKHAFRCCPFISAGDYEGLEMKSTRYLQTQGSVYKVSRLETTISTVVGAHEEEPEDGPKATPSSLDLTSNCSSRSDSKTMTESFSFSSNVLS

selectivity toward NK(3) receptor (NK(3) receptor): over 200 fold
selectivity toward NK(2) receptor (NK(2) receptor): over 200 fold
Ki (human NK(1) receptor): 0.45 nM
SMILES: Cc1cccc(C)c1NC(=O)C[C@H]1CCN(C(=O)c2cc(C(F)(F)F)cc(C(F)(F)F)c2)[C@@H](Cc2ccccc2)C1.O=C(O)C[C@H](O)C(=O)O (relative stereo) [R116301, (2R-trans)-4-[1-[3,5-bis(trifluoromethyl)benzoyl]-2-(phenylmethyl)-4-piperidinyl]-N-(2,6-dimethylphenyl)-1-acetamide(S)-Hydroxybutanedioate]

SMILES: NC(=O)c1ncn([C@@H]2O[C@H](CO)[C@@H](O)[C@H]2O)c1N [Acadesine, 5-amino-4-imidazole carboxamide ribonucleoside]
safety in humans [1]: safe

plasma level [2]: about 0.4 microgram/ml
plasma level (concentration) [2]: ~800 nM
SMILES: OCCN(CCO)c1nc(N2CCCCC2)c2nc(N(CCO)CCO)nc(N3CCCCC3)c2n1 [Dipyridamole]

half life in the blood: about 10 seconds
SMILES: Nc1ncnc2c1ncn2[C@@H]1O[C@H](CO)[C@@H](O)[C@H]1O [adenosine, 6-amino-9-β-D-ribofuranosyl-9H-purine]
